# pKi: −log10 of the molar value.
# Target: T1, nuclear factor-kappa B (NF-kB)-inducing kinase (NIK) (Homo sapiens, UniProt Q99558)
# T1 construct: made in house; host or cells: baculovirus-infected insect cells
# Assay: NIK Enzyme Inhibition Assay (Transcreener ADP assay)
# Type: biochemical
# Details: purified NIK 0.2-1 nM, 10 uM ATP, fluorescence polarization, Morrison's quadratic equation; read-out: inhibitory value (Ki) for NIK
# T1 sequence (Q99558 whole entry): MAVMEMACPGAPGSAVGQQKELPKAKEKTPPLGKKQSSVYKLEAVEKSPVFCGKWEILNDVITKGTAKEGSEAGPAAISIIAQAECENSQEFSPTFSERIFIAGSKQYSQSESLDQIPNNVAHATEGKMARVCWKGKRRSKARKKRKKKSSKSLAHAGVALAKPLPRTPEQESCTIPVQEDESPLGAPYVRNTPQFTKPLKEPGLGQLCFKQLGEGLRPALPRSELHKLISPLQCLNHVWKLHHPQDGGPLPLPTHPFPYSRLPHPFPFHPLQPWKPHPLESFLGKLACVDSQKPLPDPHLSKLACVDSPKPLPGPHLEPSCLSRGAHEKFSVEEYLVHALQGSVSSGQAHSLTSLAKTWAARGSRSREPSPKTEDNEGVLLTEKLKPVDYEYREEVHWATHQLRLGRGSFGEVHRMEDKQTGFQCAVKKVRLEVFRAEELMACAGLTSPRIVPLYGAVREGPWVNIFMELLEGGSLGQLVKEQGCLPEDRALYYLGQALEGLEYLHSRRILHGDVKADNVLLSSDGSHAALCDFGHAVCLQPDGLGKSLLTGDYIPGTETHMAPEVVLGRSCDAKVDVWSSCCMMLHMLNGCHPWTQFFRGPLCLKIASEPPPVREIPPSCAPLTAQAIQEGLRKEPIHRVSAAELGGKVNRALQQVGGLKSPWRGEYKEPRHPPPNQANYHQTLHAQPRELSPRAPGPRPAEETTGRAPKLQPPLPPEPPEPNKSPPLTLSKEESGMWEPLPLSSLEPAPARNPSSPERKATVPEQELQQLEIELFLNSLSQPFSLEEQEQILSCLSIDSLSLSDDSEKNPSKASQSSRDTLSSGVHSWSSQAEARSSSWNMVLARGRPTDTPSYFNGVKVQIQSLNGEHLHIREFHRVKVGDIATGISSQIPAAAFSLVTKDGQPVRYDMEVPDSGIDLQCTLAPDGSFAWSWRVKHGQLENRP
row,Compound,pKi
1,"Cc1nc([C@](C)(O)C#Cc2ccc3c(c2)n(-c2ccnc(N)n2)c(=O)n3C)no1 [Example T1.1-31, 3-(2-aminopyrimidin-4-yl)-5-[(3R)-3-hydroxy-3-(5-methyl-1,2,4-oxadiazol-3-yl)but-1-ynyl]-1-methyl-benzimidazol-2-one]",8.70
2,"Cc1cc(C(C)(O)C#Cc2ccc3c(c2)n(-c2ccnc(N)n2)c(=O)n3CC2CC2)no1 (stereo not drawn) [Example T1.1-32, 3-(2-aminopyrimidin-4-yl)-1-(cyclopropylmethyl)-5-[3-hydroxy-3-(5-methylisoxazol-3-yl)but-1-ynyl] benzimidazol-2-one]",8.70
3,"Cc1nn(-c2ccnc(N)n2)c2cc(C#CC(C)(O)c3cc(CO)on3)ccc12 (stereo not drawn) [Example T1.1-33, 4-[1-(2-aminopyrimidin-4-yl)-3-methyl-indazol-6-yl]-2-[5-(hydroxy-methyl)isoxazol-3-yl]but-3-yn-2-ol]",8.70
4,"Cc1nc([C@](C)(O)C#Cc2ccc3c(C(=O)N4CC(O)C4)nn(-c4ccnc(N)n4)c3c2)no1 [Example T1.1-34, [1-(2-aminopyrimidin-4-yl)-6-[(3R)-3-hydroxy-3-(5-methyl-1,2,4-oxadiazol-3-yl)but-1-ynyl]indazol-3-yl]-(3-hydroxyazetidin-1-yl)methanone]",8.70
5,"Cc1nc([C@](C)(O)C#Cc2ccc3c(C(C)(C)F)nn(-c4ccnc(N)n4)c3c2)no1 [Example T1.1-35, (2R)-4-[1-(2-aminopyrimidin-4-yl)-3-(1-fluoro-1-methyl-ethyl)indazol-6-yl]-2-(5-methyl-1,2,4-oxadiazol-3-yl) but-3-yn-2-ol]",8.70
6,"Cc1nc(C(C)(O)C#Cc2ccc3c(CC(C)(O)C(F)F)nn(-c4ccnc(N)n4)c3c2)no1 (stereo not drawn) [Example T1.1-36, 3-[1-(2-aminopyrimidin-4-yl)-6-[3-hydroxy-3-(5-methyl-1,2,4-oxadiazol-3-yl)but-1-ynyl]indazol-3-yl]-1,1-difluoro-2-methyl-propan-2-ol]",8.70
7,"Cc1cc([C@](C)(O)C#Cc2ccc3c(CN4CCOCC4)nn(-c4ccnc(N)n4)c3c2)no1 [Example T1.1-38, (2R)-4-[1-(2-aminopyrimidin-4-yl)-3-(morpholinomethyl)indazol-6-yl]-2-(5-methylisoxazol-3-yl)but-3-yn-2-ol]",8.70
8,"CN(C)C(=O)c1nn(-c2ccnc(N)n2)c2cc(C#CC3(O)CCn4ccnc43)ccc12 (stereo not drawn) [Example T1.1-39, 1-(2-aminopyrimidin-4-yl)-6-[2-(7-hydroxy-5,6-dihydropyrrolo[1,2-a]imidazol-7-yl)ethynyl]-N,N-dimethyl-indazole-3-carboxamide]",8.70
9,"Cc1nc([C@](C)(O)C#Cc2ccc3c(CO)nn(-c4ccnc(N)n4)c3c2)no1 [Example T1.1-40, (2R)-4-[1-(2-aminopyrimidin-4-yl)-3-(hydroxymethyl)indazol-6-yl]-2-(5-methyl-1,2,4-oxadiazol-3-yl)but-3-yn-2-ol]",8.70
10,"Nc1nccc(-n2nc(C(=O)N3CCOCC3)c3ccc(C#CC4(O)CCn5ccnc54)cc32)n1 (stereo not drawn) [Example T1.1-41, [1-(2-aminopyrimidin-4-yl)-6-[2-(7-hydroxy-5,6-dihydropyrrolo[1,2-a]imidazol-7-yl)ethynyl]indazol-3-yl]-morpholino-methanone]",8.70
11,"Cc1cc(C(C)(O)C#Cc2ccc3nc(OC4CCOCC4)n(-c4ccnc(N)n4)c3c2)no1 (stereo not drawn) [Example T1.1-42, 4-[3-(2-aminopyrimidin-4-yl)-2-tetrahydropyran-4-yloxy-benzimidazol-5-yl]-2-(5-methylisoxazol-3-yl)but-3-yn-2-ol]",8.52
12,"CC(O)(C#Cc1ccc2c(CN3CC(F)(F)C3)nn(-c3ccnc(N)n3)c2c1)c1ncccn1 (stereo not drawn) [Example T1.1-43, 4-[1-(2-aminopyrimidin-4-yl)-3-[(3,3-difluoroazetidin-1-yl)methyl]indazol-6-yl]-2-pyrimidin-2-yl-but-3-yn-2-ol]",8.52
13,"COCCOc1nc2ccc(C#C[C@@](C)(O)c3cc(C)on3)cc2n1-c1ccnc(N)n1 [Example T1.1-44, (2R)-4-[3-(2-aminopyrimidin-4-yl)-2-(2-methoxyethoxy)benzimidazol-5-yl]-2-(5-methylisoxazol-3-yl)but-3-yn-2-ol]",8.52
14,"Cc1nn(-c2ccnc(N)n2)c2cc(C#CC(C)(O)c3nc[nH]n3)ccc12 (stereo not drawn) [Example T1.1-45, 4-[1-(2-aminopyrimidin-4-yl)-3-methyl-indazol-6-yl]-2-(1H-1,2,4-triazol-3-yl)but-3-yn-2-ol]",8.52
15,"CC(O)(C#Cc1ccc2nc(OCC(F)(F)F)n(-c3ccnc(N)n3)c2c1)c1ncccn1 (stereo not drawn) [Example T1.1-46, 4-[3-(2-aminopyrimidin-4-yl)-2-(2,2,2-trifluoroethoxy)benzimidazol-5-yl]-2-pyrimidin-2-yl-but-3-yn-2-ol]",8.52
16,"Cc1nc([C@](C)(O)C#Cc2ccc3nc(OC4COC4)n(-c4ccnc(N)n4)c3c2)no1 [Example T1.1-47, (2R)-4-[3-(2-aminopyrimidin-4-yl)-2-(oxetan-3-yloxy)benzimidazol-5-yl]-2-(5-methyl-1,2,4-oxadiazol-3-yl)but-3-yn-2-ol]",8.52
17,"CCOc1nc2ccc(C#CC(C)(O)c3ncccn3)cc2n1-c1ccnc(N)n1 (stereo not drawn) [Example T1.1-48, 4-[3-(2-aminopyrimidin-4-yl)-2-ethoxy-benzimidazol-5-yl]-2-pyrimidin-2-yl-but-3-yn-2-ol]",8.52

row,Compound,pKi
1,"CC(O)(C#Cc1ccc2c(CF)nn(-c3ccnc(N)n3)c2c1)c1ncccn1 (stereo not drawn) [Example T1.1-49, 4-[1-(2-aminopyrimidin-4-yl)-3-(fluoromethyl)indazol-6-yl]-2-pyrimidin-2-yl-but-3-yn-2-ol]",8.40
2,"Cc1nc([C@](C)(O)C#Cc2ccc3c(C(C)(C)O)nn(-c4nc(N)ncc4Cl)c3c2)no1 [Example T1.1-50, (2R)-4-[1-(2-amino-5-chloro-pyrimidin-4-yl)-3-(1-hydroxy-1-methyl-ethyl)indazol-6-yl]-2-(5-methyl-1,2,4-oxadiazol-3-yl) but-3-yn-2-ol]",8.40
3,"COCCOc1nc2ccc(C#C[C@@](C)(O)c3noc(C)n3)cc2n1-c1ccnc(N)n1 [Example T1.1-51, (2R)-4-[3-(2-aminopyrimidin-4-yl)-2-(2-methoxyethoxy)benzimidazol-5-yl]-2-(5-methyl-1,2,4-oxadiazol-3-yl)but-3-yn-2-ol]",8.40
4,"Cc1nn(-c2ccnc(N)n2)c2cc(C#CC(C)(O)CF)ccc12 (stereo not drawn) [Example T1.1-52, 4-[1-(2-aminopyrimidin-4-yl)-3-methyl-indazol-6-yl]-1-fluoro-2-methyl-but-3-yn-2-ol]",8.40
5,"CC(O)(C#Cc1ccc2c(C(=O)N3CCOCC3)nn(-c3ccnc(N)n3)c2c1)c1ncccn1 (stereo not drawn) [Example T1.1-54, [1-(2-aminopyrimidin-4-yl)-6-(3-hydroxy-3-pyrimidin-2-yl-but-1-ynyl)indazol-3-yl]-morpholino-methanone]",8.40
6,"CC(=O)N1CC(Oc2nc3ccc(C#CC(C)(O)c4cc(C)on4)cc3n2-c2ccnc(N)n2)C1 (stereo not drawn) [Example T1.1-55, 1-[3-[1-(2-aminopyrimidin-4-yl)-6-[3-hydroxy-3-(5-methylisoxazol-3-yl)but-1-ynyl]benzimidazol-2-yl]oxyazetidin-1-yl]ethanone]",8.40
7,"CC(C)(O)c1nn(-c2ccnc(N)n2)c2cc(C#CC(C)(O)c3ccccn3)ccc12 (stereo not drawn) [Example T1.1-56, 4-[1-(2-aminopyrimidin-4-yl)-3-(1-hydroxy-1-methyl-ethyl)indazol-6-yl]-2-(2-pyridyl)but-3-yn-2-ol]",8.40
8,"CC(C)(O)c1nn(-c2ccnc(N)n2)c2cc(C#CC(C)(O)c3ncccn3)ccc12 (stereo not drawn) [Example T1.1-57, 4-[1-(2-aminopyrimidin-4-yl)-3-(1-hydroxy-1-methyl-ethyl)indazol-6-yl]-2-pyrimidin-2-yl-but-3-yn-2-ol]",8.30
9,"COCCOc1nc2ccc(C#CC(C)(O)c3ncccn3)cc2n1-c1ccnc(N)n1 (stereo not drawn) [Example T1.1-58, 4-[3-(2-aminopyrimidin-4-yl)-2-(2-methoxyethoxy)benzimidazol-5-yl]-2-pyrimidin-2-yl-but-3-yn-2-ol]",8.30
10,"Cc1cc(C(C)(O)C#Cc2ccc3c(C(O)(C4CCOCC4)C4CC4)nn(-c4ccnc(N)n4)c3c2)no1 (stereo not drawn) [Example T1.1-59, 4-[1-(2-aminopyrimidin-4-yl)-3-(cyclopropyl-hydroxy-tetrahydropyran-4-yl-methyl)indazol-6-yl]-2-(5-methyl-isoxazol-3-yl)but-3-yn-2-ol]",8.30
11,"CC(O)(C#Cc1ccc2nc(OCCO)n(-c3ccnc(N)n3)c2c1)c1ncccn1 (stereo not drawn) [Example T1.1-60, 4-[3-(2-aminopyrimidin-4-yl)-2-(2-hydroxyethoxy)benzimidazol-5-yl]-2-pyrimidin-2-yl-but-3-yn-2-ol]",8.22
12,"CC(O)(C#Cc1ccc2c(CO)nn(-c3ccnc(N)n3)c2c1)c1ncccn1 (stereo not drawn) [Example T1.1-61, 4-[1-(2-aminopyrimidin-4-yl)-3-(hydroxymethyl)indazol-6-yl]-2-pyrimidin-2-yl-but-3-yn-2-ol]",8.22
13,"Cc1nc2ccc(C#CC(C)(O)c3ncccn3)cc2n1-c1ncnc(N)n1 (stereo not drawn) [Example T1.1-62, 4-[3-(4-amino-1,3,5-triazin-2-yl)-2-methyl-benzimidazol-5-yl]-2-pyrimidin-2-yl-but-3-yn-2-ol]",8.22
14,"CC(O)(C#Cc1ccc2c(C(=O)N3CC4(COC4)C3)nn(-c3ccnc(N)n3)c2c1)c1ncccn1 (stereo not drawn) [Example T1.1-63, [1-(2-aminopyrimidin-4-yl)-6-(3-hydroxy-3-pyrimidin-2-yl-but-1-ynyl)indazol-3-yl]-(2-oxa-6-azaspiro[3.3]heptan-6-yl)methanone]",8.22
15,"CN(C)C(=O)c1nn(-c2ccnc(N)n2)c2cc(C#CC(C)(O)c3ncccn3)ccc12 (stereo not drawn) [Example T1.1-64, 1-(2-aminopyrimidin-4-yl)-6-(3-hydroxy-3-pyrimidin-2-yl-but-1-ynyl)-N,N-dimethyl-indazole-3-carboxamide]",8.22
16,"Cc1nc([C@](C)(O)C#Cc2ccc3c(CN4CC(F)(F)C4)nn(-c4ccnc(N)n4)c3c2)no1 [Example T1.1-65, (2R)-4-[1-(2-aminopyrimidin-4-yl)-3-[(3,3-difluoroazetidin-1-yl)methyl]indazol-6-yl]-2-(5-methyl-1,2,4-oxadiazol-3-yl)but-3-yn-2-ol]",8.15

# Reference: patent US8901313B2, “6,5-heterocyclic propargylic alcohol compounds and uses therefor” (Genentech, Inc., priority 2011, dated 2014)
